Assay results: ChEMBL document CHEMBL1201862, “PubChem BioAssay data set” (2004)
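Cells were grown in 96-well plates and exposed to each compound for 48 hours at five concentrations; endpoints were interpolated linearly between bracketing concentrations, or set to the highest concentration if not reached. Abbreviation: GI50, concentration required for 50% inhibition of growth.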 Calls of active or inactive are those of the source. Cut-off read from the data, not from the text of the source: active = GI50 up to about 1.1 µM and inactive = higher.

Legend:
Assay in all cases: NCI-60 cell line screen, 48 h
[1] = system: 786-0
[2] = system: CCRF-CEM
[3] = system: HCC 2998
[4] = system: HOP-92
[5] = system: IGROV-1
[6] = system: LOX IMVI
[7] = system: MCF7
[8] = system: Malme-3M
[9] = system: NCI-H226
[10] = system: NCI-H23
[11] = system: NCI-H460
[12] = system: NCI/ADR-RES
[13] = system: OVCAR-5
[14] = system: SF-268
[15] = system: SK-MEL-28
[16] = system: SK-OV-3
[17] = system: SN12C
[18] = system: SW-620
[19] = system: T47D
[20] = system: RXF 393

| SMILES | GI50 [1] | GI50 [2] | GI50 [3] | GI50 [4] | GI50 [5] | GI50 [6] | GI50 [7] | GI50 [8] | GI50 [9] | GI50 [10] | GI50 [11] | GI50 [12] | GI50 [13] | GI50 [14] | GI50 [15] | GI50 [16] | GI50 [17] | GI50 [18] | GI50 [19] | GI50 [20] |
| --- | --- | --- | --- | --- | --- | --- | --- | --- | --- | --- | --- | --- | --- | --- | --- | --- | --- | --- | --- | --- |
| CCCCC1C=Cn2c(=O)oc3c(OC(C)C)c(C)c(O)c1c32 (stereo unspecified) | 1.16 µM (inactive) | 1.68 µM (inactive) | 2.96 µM (inactive) | 3.05 µM (inactive) | 1.88 µM (inactive) | 0.566 µM (active) | 0.509 µM (active) | 1.47 µM (inactive) | 1.63 µM (inactive) | 1.48 µM (inactive) | 0.652 µM (active) | 0.993 µM (active) | 4.78 µM (inactive) | 0.796 µM (active) | 1.19 µM (inactive) | 3.14 µM (inactive) | 1.37 µM (inactive) | 0.904 µM (active) | 1.85 µM (inactive) |  |
| C[n+]1c2ccccc2c2/c(=C\C#N)c3ccccc3n21 | 3.5 µM (inactive) | 3.66 µM (inactive) | 1.61 µM (inactive) |  | 3 µM (inactive) | 3.48 µM (inactive) | 2.16 µM (inactive) | 2.53 µM (inactive) | 3.81 µM (inactive) | 5.11 µM (inactive) | 4.35 µM (inactive) | 32 µM (inactive) | 5.78 µM (inactive) | 6.27 µM (inactive) | 9.25 µM (inactive) | 3.88 µM (inactive) | 3.42 µM (inactive) | 3.07 µM (inactive) | 5.73 µM (inactive) | 4.85 µM (inactive) |
| Clc1ccc(-c2ccc(-c3nnc(COc4ccc(OCc5nnc(-c6ccc(-c7ccc(Cl)cc7Cl)o6)o5)c(Cl)c4)o3)o2)c(Cl)c1 | > 100 µM (inactive) | 32.4 µM (inactive) | > 100 µM (inactive) |  | > 100 µM (inactive) | > 100 µM (inactive) | > 100 µM (inactive) |  | > 100 µM (inactive) | > 100 µM (inactive) | > 100 µM (inactive) | > 100 µM (inactive) | > 100 µM (inactive) | 56.1 µM (inactive) | > 100 µM (inactive) |  | > 100 µM (inactive) | > 100 µM (inactive) | > 100 µM (inactive) | 16.2 µM (inactive) |
| COC(=O)c1ccc(Nc2nc3[nH]cnc3c(=O)[nH]2)cc1 | > 100 µM (inactive) | > 100 µM (inactive) | > 100 µM (inactive) | > 100 µM (inactive) | > 100 µM (inactive) | 95.5 µM (inactive) | > 100 µM (inactive) | > 100 µM (inactive) | > 100 µM (inactive) | > 100 µM (inactive) | > 100 µM (inactive) | > 100 µM (inactive) | > 100 µM (inactive) | 94 µM (inactive) | > 100 µM (inactive) | 89.3 µM (inactive) | > 100 µM (inactive) | > 100 µM (inactive) | 69 µM (inactive) |  |
| Oc1ccc(-c2c3ccccc3c(-c3ccc(OCCBr)cc3)c3ccccc23)cc1 | 21.9 µM (inactive) | 60.1 µM (inactive) | 44.2 µM (inactive) |  | 22 µM (inactive) | 16.9 µM (inactive) | 14.4 µM (inactive) | 14.7 µM (inactive) | 20 µM (inactive) | 15.6 µM (inactive) | 52.6 µM (inactive) | 19.6 µM (inactive) | 27.1 µM (inactive) | 56.1 µM (inactive) | 27.9 µM (inactive) | 52.7 µM (inactive) | 22.1 µM (inactive) | 53.3 µM (inactive) | 35.7 µM (inactive) | 24.7 µM (inactive) |
| COC(=O)NN=C(c1ccc(Cl)cc1)c1ccc(Cl)cc1 | > 100 µM (inactive) | 67.6 µM (inactive) | > 100 µM (inactive) |  | 22.9 µM (inactive) | > 100 µM (inactive) | > 100 µM (inactive) | > 100 µM (inactive) | > 100 µM (inactive) | > 100 µM (inactive) | > 100 µM (inactive) | > 100 µM (inactive) | > 100 µM (inactive) | > 100 µM (inactive) | > 100 µM (inactive) | > 100 µM (inactive) | > 100 µM (inactive) | > 100 µM (inactive) | > 100 µM (inactive) | 22.4 µM (inactive) |
| CC1(O)CC(C(F)(F)F)(C(F)(F)F)OC1=O (stereo unspecified) | > 10 µM (inactive) | > 10 µM (inactive) | > 10 µM (inactive) | > 10 µM (inactive) | > 10 µM (inactive) | > 10 µM (inactive) | > 10 µM (inactive) | > 10 µM (inactive) | > 10 µM (inactive) | > 10 µM (inactive) | > 10 µM (inactive) | > 10 µM (inactive) | > 10 µM (inactive) | > 10 µM (inactive) | > 10 µM (inactive) | > 10 µM (inactive) | > 10 µM (inactive) | > 10 µM (inactive) | > 10 µM (inactive) |  |
| COc1ccccc1C1(c2c(OC(C)C)c(=O)c2=O)SCCCS1 | > 100 µM (inactive) | 40.5 µM (inactive) |  | > 100 µM (inactive) | > 100 µM (inactive) | > 100 µM (inactive) | > 100 µM (inactive) |  | > 100 µM (inactive) | > 100 µM (inactive) | > 100 µM (inactive) | > 100 µM (inactive) | > 100 µM (inactive) | > 100 µM (inactive) | 87.1 µM (inactive) | > 100 µM (inactive) | > 100 µM (inactive) | > 100 µM (inactive) | > 100 µM (inactive) | > 100 µM (inactive) |
| CC(=O)O[C@H]1C(=O)[C@@]2(C)[C@H]([C@H](OC(=O)c3ccc(F)cc3)[C@]3(O)C[C@H](OC(=O)[C@H](O)[C@@H](NC(=O)c4ccccc4)c4ccccc4)C(C)=C1C3(C)C)[C@]1(OC(C)=O)CO[C@@H]1C[C@@H]2O | 0.084 µM (active) | 0.00819 µM (active) | 0.0107 µM (active) |  | 0.0233 µM (active) | 0.00828 µM (active) | 0.00334 µM (active) | 0.0127 µM (active) | 0.108 µM (active) | 0.124 µM (active) | 0.0132 µM (active) | 9.84 µM (inactive) | 0.0222 µM (active) | 0.0929 µM (active) | 9.48 µM (inactive) | 0.0159 µM (active) | 0.528 µM (active) | 0.0065 µM (active) | 0.00931 µM (active) | 0.0813 µM (active) |
| COC(=O)C(/C(=N/NC(=O)c1ccncc1)C(=O)Nc1ccccc1OC)c1nc2ccc(Cl)cc2nc1O (stereo unspecified) | > 100 µM (inactive) | > 10 µM (inactive) |  | > 100 µM (inactive) | 11 µM (inactive) | > 100 µM (inactive) | > 100 µM (inactive) | > 100 µM (inactive) | 22.2 µM (inactive) | > 100 µM (inactive) | > 100 µM (inactive) | > 100 µM (inactive) | > 100 µM (inactive) | > 100 µM (inactive) | > 100 µM (inactive) | > 100 µM (inactive) | > 100 µM (inactive) | > 100 µM (inactive) | > 100 µM (inactive) | > 100 µM (inactive) |
| C=CC1ON(Cc2ccccc2)CCc2cc(OC)c(OC)cc21 (stereo unspecified) | > 100 µM (inactive) | 45.7 µM (inactive) | 35.5 µM (inactive) | 46.5 µM (inactive) | 78 µM (inactive) | 43.3 µM (inactive) | > 100 µM (inactive) | 19.2 µM (inactive) | > 100 µM (inactive) | 53.3 µM (inactive) | 57 µM (inactive) | 45.5 µM (inactive) | > 100 µM (inactive) | 46.6 µM (inactive) | 36.9 µM (inactive) | 56.5 µM (inactive) | 77.4 µM (inactive) | 44.9 µM (inactive) | 27.7 µM (inactive) |  |
| CC(CNC(=O)c1ccccc1)(CNC(=O)c1ccccc1)[N+](=O)[O-] | > 100 µM (inactive) |  |  | > 100 µM (inactive) | > 100 µM (inactive) |  | > 100 µM (inactive) | > 100 µM (inactive) | > 100 µM (inactive) | > 100 µM (inactive) | > 100 µM (inactive) | > 100 µM (inactive) | > 100 µM (inactive) | > 100 µM (inactive) |  | > 100 µM (inactive) | > 100 µM (inactive) | > 100 µM (inactive) | > 100 µM (inactive) | > 100 µM (inactive) |
| CC1=CCC(=O)[C@]2(C)C(CC(=O)O)[C@]3(C)C4=C(C)C(c5ccoc5)C[C@@H]4O[C@@H]3[C@H](O)[C@@H]12 (stereo partly specified) | > 100 µM (inactive) | > 100 µM (inactive) | > 100 µM (inactive) | > 100 µM (inactive) | > 100 µM (inactive) | > 100 µM (inactive) | > 100 µM (inactive) | > 100 µM (inactive) |  | > 100 µM (inactive) | > 100 µM (inactive) | > 100 µM (inactive) | > 100 µM (inactive) | > 100 µM (inactive) | > 100 µM (inactive) | > 100 µM (inactive) | > 100 µM (inactive) | > 100 µM (inactive) | > 100 µM (inactive) |  |
| CC1C2Cc3ccc(O)cc3C1(C)CCN2C (stereo unspecified) | > 100 µM (inactive) | > 100 µM (inactive) | > 100 µM (inactive) |  | > 100 µM (inactive) | > 100 µM (inactive) | > 100 µM (inactive) | > 100 µM (inactive) | > 100 µM (inactive) | > 100 µM (inactive) | > 100 µM (inactive) | > 100 µM (inactive) | > 100 µM (inactive) | > 100 µM (inactive) | > 100 µM (inactive) | > 100 µM (inactive) | > 100 µM (inactive) | > 100 µM (inactive) | > 100 µM (inactive) | > 100 µM (inactive) |
| N[C@@H]1CCN(c2c(F)cc3c(=O)c(C(=O)O)cn4c3c2Oc2cc3c(ccc5ccccc53)cc2-4)C1 | 1.55 µM (inactive) | 0.0482 µM (active) |  | 2.72 µM (inactive) | 1.82 µM (inactive) | 2.34 µM (inactive) | 3.13 µM (inactive) | 5.27 µM (inactive) | 6.58 µM (inactive) | 3.06 µM (inactive) | 0.735 µM (active) | > 79.3 µM (inactive) | 13.9 µM (inactive) |  | > 21.1 µM (inactive) |  | 2.08 µM (inactive) | 1.41 µM (inactive) | 4.56 µM (inactive) | 1.64 µM (inactive) |
